Measurements as given in publication PMC10589313 (Nature Communications, 2023).
Where “and” joins values, the source holds several entries; their conditions need not be identical. Identical values can stand only once.

Legend:
H1R = details: in words; cited from earlier work
human H4R Q347A mutant = molecular target: T1, human H4R Q347A mutant (Homo sapiens, UniProt Q9H3N8, Q347A); experiment: TGFα shedding assay, H4R Q347A mutant; assay type: cell-based
T1 construct: a mutant H4R (human, full-length, and untagged); expressed in transfected cells; host or cells: HEK293A
Method: (§1) The mutants were prepared using the primers listed in Supplementary Table 2. […] The chimeric Gαq/i1 subunit comprises the Gαq backbone and Gαi1-derived six-amino acid C-terminus and couples with Gi-coupled H4R but induces a Gq-dependent TGFα shedding response. After culturing for 1 day and incubating at 37 °C in a 5% CO2 incubator, the transfected cells were harvested by trypsinization, neutralized with Dulbecco’s modified Eagle’s medium containing 10% fetal calf serum (FCS) and penicillin–streptomycin, washed once with Hank’s balanced salt solution (HBSS) containing 5 mM of HEPES (pH 7.4), and resuspended in 6 mL of the HEPES-containing HBSS. The cell suspension was seeded into a 96-well plate at a volume of […] per well (typically, 48 wells per transfected cells) and incubated for 30 min in the CO2 incubator. Test compounds (10×, diluted in 0.01% BSA and 5 mM of HEPES-containing HBSS, […] volume) were added to duplicate wells and incubated for 1 h. After centrifugation, the conditioned medium ([…]) was transferred to an empty 96-well plate. AP reaction solution [10 mM of p-nitrophenylphosphate (p-NPP), 120 mM of Tris–HCl (pH 9.5), 40 mM of NaCl, and 10 mM of MgCl2] was dispensed into the cell culture plates and plates containing conditioned media ([…]). Absorbance was measured at 405 nm before and after a 1-h incubation period at 25 °C using a microplate reader (iMark™ Microplate Absorbance Reader; BioRad). Ligand-induced AP-TGFα release was calculated as previously described. The vehicle-treated AP-TGFα release signal was set as a baseline unless otherwise specified. AP-TGFα release signals were fitted with a four-parameter sigmoidal concentration-response curve, from which EC50 and Emax values were obtained, using GraphPad Prism 9 software (GraphPad Prism). Negative values of logarithmically transformed EC50 values (pEC50) were used to calculate the mean and standard error of independent experiments.
(§2) All functional study data were analyzed using Prism 9 (GraphPad) and are presented as mean ± standard error of the mean (SEM) of three independent experiments. Statistical analyses were performed using Prism 9 (GraphPad) with one-way analysis of variance followed by Dunnett’s post-hoc test. Values with p < 0.05 are considered statistically significant.

H4R = details: read-out: binding affinity (Ki) for H4R; cited from earlier work
human H4R F344I mutant = molecular target: T2, human H4R F344I mutant (Homo sapiens, UniProt Q9H3N8, F344I); experiment: TGFα shedding assay, H4R F344I mutant; assay type: cell-based
T2 construct: a mutant H4R (human, full-length, and untagged); expressed in transfected cells; host or cells: HEK293A
Method: as §1, §2

human H4R W348A mutant = molecular target: T3, human H4R W348A mutant (Homo sapiens, UniProt Q9H3N8, W348A); experiment: TGFα shedding assay, H4R W348A mutant; assay type: cell-based
T3 construct: a mutant H4R (human, full-length, and untagged); expressed in transfected cells; host or cells: HEK293A
Method: as §1
(§3) All functional study data were analyzed using Prism 9 (GraphPad) and are presented as mean ± standard error of the mean (SEM) of three independent experiments. […]

H2R = details: in words; cited from earlier work
human H4R D94A mutant = molecular target: T4, human H4R D94A mutant (Homo sapiens, UniProt Q9H3N8, D94A); experiment: TGFα shedding assay, H4R D94A mutant; assay type: cell-based
T4 construct: a mutant H4R (human, full-length, and untagged); expressed in transfected cells; host or cells: HEK293A
Method: as §1, §3

human H4R Y319A mutant = molecular target: T5, human H4R Y319A mutant (Homo sapiens, UniProt Q9H3N8, Y319A); experiment: TGFα shedding assay, H4R Y319A mutant; assay type: cell-based
T5 construct: a mutant H4R (human, full-length, and untagged); expressed in transfected cells; host or cells: HEK293A
Method: as §1, §2

human H4R Y95A mutant = molecular target: T6, human H4R Y95A mutant (Homo sapiens, UniProt Q9H3N8, Y95A); experiment: TGFα shedding assay, H4R Y95A mutant; assay type: cell-based
T6 construct: a mutant H4R (human, full-length, and untagged); expressed in transfected cells; host or cells: HEK293A
Method: as §1, §3

human H4R Q347G mutant = molecular target: T7, human H4R Q347G mutant (Homo sapiens, UniProt Q9H3N8, Q347G); experiment: TGFα shedding assay, H4R Q347G mutant; assay type: cell-based
T7 construct: a mutant H4R (human, full-length, and untagged); expressed in transfected cells; host or cells: HEK293A
Method: as §1, §2

[1] = Imetit (M) -5 (log concentration), raw replicate values

T5 sequence (Q9H3N8 whole entry Y319A): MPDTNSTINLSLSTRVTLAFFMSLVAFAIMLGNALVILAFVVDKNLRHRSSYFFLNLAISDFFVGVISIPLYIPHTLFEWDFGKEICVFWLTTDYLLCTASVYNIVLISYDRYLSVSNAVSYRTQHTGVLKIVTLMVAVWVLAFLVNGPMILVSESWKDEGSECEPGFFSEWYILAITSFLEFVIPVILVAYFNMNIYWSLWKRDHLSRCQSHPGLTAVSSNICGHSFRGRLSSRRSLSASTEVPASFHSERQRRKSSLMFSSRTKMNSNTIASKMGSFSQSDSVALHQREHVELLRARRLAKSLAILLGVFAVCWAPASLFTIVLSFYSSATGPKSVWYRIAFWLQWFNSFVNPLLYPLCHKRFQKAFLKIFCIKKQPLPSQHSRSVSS
T2 sequence (Q9H3N8 whole entry F344I): as the sequence (Q9H3N8 whole entry Y319A) above, with A319Y, F344I counted along it
T3 sequence (Q9H3N8 whole entry W348A): as the sequence (Q9H3N8 whole entry Y319A) above, with A319Y, W348A counted along it
T4 sequence (Q9H3N8 whole entry D94A): as the sequence (Q9H3N8 whole entry Y319A) above, with D94A, A319Y counted along it
T7 sequence (Q9H3N8 whole entry Q347G): as the sequence (Q9H3N8 whole entry Y319A) above, with A319Y, Q347G counted along it
T1 sequence (Q9H3N8 whole entry Q347A): as the sequence (Q9H3N8 whole entry Y319A) above, with A319Y, Q347A counted along it
T6 sequence (Q9H3N8 whole entry Y95A): as the sequence (Q9H3N8 whole entry Y319A) above, with Y95A, A319Y counted along it

N=C(N)SCCc1cnc[nH]1 [Imetit, imetit]
binding to H1R (H1R): does not bind
EC50 (human H4R Q347A mutant; EC50 (nM), Q347A mutant): 12.7 nM
Shedding assay response, Q347A (human H4R Q347A mutant; [1]): 17.2563 and 18.9409 and 18.4053 and 16.608 and 19.8188 and 22.6245 and 22.4962 and 23.3465 and 23.6643
fold of change (human H4R Q347A mutant; Q347A mutant, EC50 relative to WT): 0.4 fold
EC50 (human H4R Q347A mutant; pEC50 mean ± SEM, Q347A mutant): 12.3 nM
Emax (human H4R Q347A mutant; read-out: Emax (%) mean ± SEM): 19.3 ± 1.1%
Ki (H4R): 0.0027 µM
EC50 (human H4R F344I mutant): > 10 µM
signaling activity at mutant, in words (human H4R F344I mutant; F344I (H1R mimic) mutant vs wild type): loss of imetit activity
Shedding assay response, F344I (human H4R F344I mutant; [1]): 1.112 and 4.483 and 7.185 and 5.21 and 4.635 and 3.564 and 4.726 and 4.072 and 2.0567
EC50 (human H4R W348A mutant): > 10 µM
Shedding assay response, W348A (human H4R W348A mutant; [1]): 2.59 and 2.574 and 7.329 and -2.233 and 0.1771 and -0.5753 and 0.3498 and -1.339 and 0.3261
binding to H2R (H2R): does not bind
EC50 (human H4R D94A mutant): > 10 µM
Shedding assay response, D94A (human H4R D94A mutant; [1]): -0.3449 and 0.03257 and -1.499 and 0.2405 and 1.217 and -0.1126 and 0.7155 and 3.933 and 12.3814
EC50 (human H4R Y319A mutant; EC50 (nM), Y319A mutant): 159 nM
Shedding assay response, Y319A (human H4R Y319A mutant; [1]): 15.1866 and 16.9873 and 18.1596 and 17.4201 and 15.3203 and 22.2497 and 14.1035 and 13.1515 and 10.7745
fold of change (human H4R Y319A mutant; Y319A mutant, EC50 relative to WT): 5.3 fold
EC50 (human H4R Y319A mutant; pEC50 mean ± SEM, Y319A mutant): 141 nM
Emax (human H4R Y319A mutant; read-out: Emax (%) mean ± SEM): 15.8 ± 1.58%
EC50 (human H4R Y95A mutant): > 10 µM
Shedding assay response, Y95A (human H4R Y95A mutant; [1]): 0.2008 and 4.141 and 6.475 and 5.892 and -1.081 and 3.761 and 1.333 and 3.151 and 12.3655
EC50 (human H4R Q347G mutant; EC50 (nM), Q347G mutant): 6.2 nM
EC50 (human H4R Q347G mutant; EC50 (nM), Q347G, single experiments, source data Figure 4e-f): 1.75 nM and 12.3 nM and 4.7 nM
Shedding assay response, Q347G (human H4R Q347G mutant; [1]): 13.312 and 10.4592 and 11.4881 and 12.2257 and 13.3616 and 12.7037 and 13.9485 and 10.6151 and 26.3814
signaling activity at mutant, in words (human H4R Q347G mutant; Q347G (H1R/H2R type) mutant vs wild type): slight increase
fold of change (human H4R Q347G mutant; Q347G mutant, EC50 relative to WT): 0.2 fold
EC50 (human H4R Q347G mutant; pEC50, Q347G, single experiments, source data Figure 4e-f): 12.3 nM
